Legend:
[1] = system: PS-2 splicing variant lacking exon 5; assay: Effect of drug on induction of expression of PS-2 splicing variants in human nerve cells under hypoxic conditions (RT-PCR, gel electrophoresis); format: cell-based; details: human neuroblastoma SK-N-SH cells, low oxygen 16 hours; cycloheximide 0.2 or 1 μg/ml, N-acetyl-L-cysteine 2 or 10 μM, diphenylene iodonium chloride 5 or 20 μM; FIG. 5
[2] = system: PS-2 splicing variants (5′-terminal fragment); assay: Detection of PS-2 splicing variants in human nerve cells after β-amyloid stimulation or hydrogen peroxide addition (RT-PCR, gel electrophoresis); format: cell-based; details: SK-N-SH cells; Aβ25-35 0.5 or 5 μM for 16 hours; H2O2 44 or 440 μM for 2 hours; FIG. 2
Procedure: After culturing human neuroblastoma SK-N-SH cells (ATCC HTB-11) in α-MEM medium (α-Minimum Essential Medium; available from GIBCO CO.) containing 10% fetal bovine serum in a 10 cm diameter culture plates at 37° C. for about 48 hours in a CO2 incubator to a confluent state, the medium was replaced with the same medium not containing fetal bovine serum followed by additional culturing for about 2 hours.
The above cultured cells were additionally cultured under the conditions (i) to (iv) indicated below (culturing was continued for an additional 16 hours under the same conditions as above for the control).
(iii) β-amyloid stimulation: Aβ25-35 (available from Sigma Co.) was added to the medium to a final concentration of 0.5 μM or 5 μM followed by incubating for 16 hours. […]
Using, the RNA (total RNA, 1 μg) obtained in section (1) above as template, this RNA was allowed to react for 1 hour at 42° C. in 0.05 ml of a buffer (0.05 M Tris-HCl, pH 8.3, 0.075 MN KCl, 0.003 M MgCl2, DTT and 0.0002 M deoxynucleotides) containing oligo dT primer (50 pmole), random oligonucleotide (5 pmole) and reverse transcriptase (available from Promega Co., Moloney leukaemia virus reverse transcriptase) (200 units) to synthesize single-strand cDNA. Using the resulting single-strand cDNA, splicing variants were detected by polymerase chain reaction (PCR) in the manner described below. […]

Molecule | expression of a splicing variant lacking exon 5 induced by hypoxic treatment [1] | bands not observed in the control, PCR of the 5′-terminal fragment of PS-2 (induced splicing variants) [2]
CC(=O)N[C@@H](CS)C(=O)O [N-acetyl-L-cysteine] | inhibited | 
C[C@@H]1C[C@@H]([C@H](O)CC2CC(=O)NC(=O)C2)C(=O)[C@@H](C)C1 [cycloheximide] | inhibited | 
c1ccc2c(c1)[I+]c1ccccc1-2 [diphenylene iodonium chloride] | inhibited | 
OO [hydrogen peroxide] |  | three bands not observed in the control
β-amyloid: partial peptide consisting of the 25th to 35th amino acid residues of β-amyloid protein (GSNKGAIIGLM; Amyloid-beta protein 42; UniProt P05067 696-706, looked up, fragment) |  | two bands each not observed in the control
